Measurements as given in PMC7031302, “Design and synthesis of new energy restriction mimetic agents: Potent anti-tumor activities of hybrid motifs of aminothiazoles and coumarins” (Scientific Reports, 2020).

Test system: normal fibroblast cell line (F180)
Test: MTT cell viability, normal fibroblasts F180
Type: cell-based
Conditions: Homo sapiens, read-out: IC50 on normal cells
Procedure: The potential cytotoxicity of 24 candidate compounds was initially evaluated at a single concentration level (5 μM). Then a full dose-response curve was plotted for each compound against different colorectal cancer cell lines (HCT116 and HT-29) by MTT assay after 72 h treatments. 4-hydroxycoumarin, OSU-CG5, and OSU-CG12 were used as positive controls. […] Compounds 9b, 9c, 9f, 9i, 11b, and 11c were selected for further studies to determine the full dose-response survival curves using different concentrations (0.1–20 µM) against CRC cell lines and normal fibroblast cell line (F180) at different time points (Fig. 2A–2F and supplementary material Page S63 and S64).
Human colorectal carcinoma cell lines (HCT116) and (HT-29) were obtained from the European Collection of Cell Cultures (ECACC, UK). The cell lines were cultured in Roswell Park Memorial Institute medium (RPMI-1640, Sigma-Aldrich-St. Louis, MO, USA) supplemented with 10% fetal bovine serum (Sigma-Aldrich-St. Louis, MO, USA) and 1% penicillin/streptomycin (Sigma-Aldrich- Louis, MO, USA). […]
Cell viability was assessed using, 3-(4,5-dimethylthiazol-2-yl)-2,5-diphenyltetrazolium bromide (MTT) assay as previously described. […] The reduced MTT crystals were solubilized in 200 µl/well of DMSO and the absorbance was measured at 570 nm using a microplate reader (Thermo-Scientific, Vantaa, Finland).

Cc1cc(=O)oc2cc(Nc3nc(-c4cccc([N+](=O)[O-])c4)cs3)ccc12 [Compound 9f, 4-Methyl-7-(4-(3-Nitrophenyl)thiazol-2-ylamino)-2H-chromen-2-one]
IC50: 7.97 µM
